Read-outs that look alike come from different tables or passages of the source. A value given as a limit tells only on which side of the number the result lay.

This assay has as its system C. parvum strain UGA1. The assay is described as follows: C. parvum growth inhibition assay (Nluc luminescence in HCT-8 cells). Format: cell-based, Cryptosporidium parvum. The conditions noted are these: Cryptosporidium parvum; for inhibition at 1 µM / inhibition at 10 µM: HCT-8; for inhibition at 1 µM: read-out: % inh @ 1 uM C. parvum; for inhibition at 10 µM: read-out: % inh @ 10 uM C. parvum; for EC50: HCT-8, 48 h, C. parvum growth inhibition in HCT-8 cells, 48 hours, 6 concentrations 10-0.04 μM.

[1] abbreviates: single point inhibition at 1 uM.
The mark [2] stands for this setting: single point inhibition at 10 uM.
Where [3] appears, read: single point inhibition @ 10 uM.

`Cc1cc(-c2cc3cnc(NC(=O)NC4CC4)cc3[nH]2)ccn1` [Example 209, 1-cyclopropyl-3-(2-(2-methylpyridin-4-yl)-1H-pyrrolo[3,2-c]pyridin-6-yl)urea]: the inhibition at 1 µM under setting [1] is 0 to 33%. In addition, under setting [2], the inhibition at 10 µM was 67 to 100%. Taken in the same sequence, the figures for `c1ccc(Nc2cc3[nH]c(-c4ccccc4)cc3cn2)cc1` [Example 271, N,2-diphenyl-1H-pyrrolo[3,2-c]pyridin-6-amine] were 0 to 33% and 0 to 33%. As for `O=S(=O)(Nc1cc2[nH]c(C(F)(F)F)cc2cn1)C1CC1` [Example 106, N-(2-(trifluoromethyl)-1H-pyrrolo[3,2-c]pyridin-6-yl)cyclopropanesulfonamide], the half-maximal effective concentration (EC50) was above 1 µM. As to `Cc1cc(-c2cc3cnc(NC(=O)[C@H]4C[C@H](O)C4)cc3[nH]2)ccn1` [Example 187, (1r,3r)-3-hydroxy-N-(2-(2-methylpyridin-4-yl)-1H-pyrrolo[3,2-c]pyridin-6-yl)cyclobutanecarboxamide], the inhibition at 1 µM (single point inhibition @ 1 uM) is 33 to 66%. Also, under setting [3], the inhibition at 10 µM is 67 to 100%. Taken in the same sequence, the figures for `Cn1c(-c2ccncc2)cc2cnc(Nc3cnn(C4CCOCC4)c3)cc21` [Example 138, 1-methyl-2-(pyridin-4-yl)-N-(1-(tetrahydro-2H-pyran-4-yl)-1H-pyrazol-4-yl)-1H-pyrrolo[3,2-c]pyridin-6-amine] were 0 to 33% and 67 to 100%. Regarding `FC(F)(F)CNc1cc(-c2cc3cnc(NC4CCOCC4)cc3[nH]2)ncn1` [Example 360, N -(tetrahydro-2H-pyran-4-yl)-2-(6-(2,2,2-trifluoroethylamino)pyrimidin-4-yl)-1H-pyrrolo[3,2-c]pyridin-6-amine], the concentration for a half-maximal effect (EC50) is below 0.5 µM. For the compound `CC(C)n1cc(C(=O)Nc2cc3c(cn2)cc(-c2ccnc(NCC(F)F)n2)n3C)cn1` [Example 169, N-(2-(2-(2,2-difluoroethylamino)pyrimidin-4-yl)-1-methyl-1H-pyrrolo[3,2-c]pyridin-6-yl)-1-isopropyl-1H-pyrazole-4-carboxamide], the inhibition at 1 µM (single point inhibition @ 1 uM) fell in the range of 0 to 33%. Besides, the inhibition at 10 µM under setting [3] fell in the range of 67 to 100%. Taken in the same sequence, the figures for `COc1nccc(-c2cc3cnc(NC(=O)c4cnn(C(C)C)c4)cc3[nH]2)n1` [Example 177, 1-isopropyl-N-(2-(2-methoxypyrimidin-4-yl)-1H-pyrrolo[3,2-c]pyridin-6-yl)-1H-pyrazole-4-carboxmaide] were 0 to 33% and 67 to 100%. With `Cn1cnc(-c2cc3cnc(NC(=O)C4CC4)cc3n2C)n1` [Example 57, N-(1-methyl-2-(1-methyl-1H-1,2,4-triazol-3-yl)-1H-pyrrolo[3,2-c]pyridin-6-yl)cyclopropanecarboxamide], the EC50 was above 1 µM. Regarding `N#Cc1cc(-c2cc3cnc(Nc4cccc(C5CCOCC5)c4)cc3[nH]2)ccn1` [Example 54, 4-(6-(3-(tetrahydro-2H-pyran-4-yl)phenylamino)-1H-pyrrolo[3,2-c]pyridin-2-yl)picolinonitrile], the EC50 is above 1 µM. In addition, for the setting “single point inhibition @ 1 uM”, the inhibition at 1 µM lay within 0 to 33%. The inhibition at 10 µM under setting [3] lay within 67 to 100%. Regarding `Cn1cc(C(=O)Nc2cc3[nH]c(-c4cc(C#N)ccn4)cc3cn2)cn1` [Example 300, N-(2-(4-cyanopyridin-2-yl)-1H-pyrrolo[3,2-c]pyridin-6-yl)-1-methyl-1H-pyrazole-4-carboxamide], the inhibition at 1 µM under setting [1] lay in the range of 0 to 33%. In addition, the inhibition at 10 µM under setting [2] fell in the range of 0 to 33%. On to `Cn1cc(C(=O)Nc2cc3[nH]c(-c4cnc(C#N)cn4)cc3cn2)cn1` [Example 303, N-(2-(5-cyanopyrazin-2-yl)-1H-pyrrolo[3,2-c]pyridin-6-yl)-1-methyl-1H-pyrazole-4-carboxamide], for which the inhibition at 1 µM under setting [1] lay within 0 to 33%. The inhibition at 10 µM under setting [2] is 0 to 33%. For the compound `Cn1cc(C(=O)Nc2cc3[nH]c(-c4cncn4C)cc3cn2)cn1` [Example 90, 1-methyl-N-(2-(1-methyl-1H-imidazol-5-yl)-1H-pyrrolo[3,2-c]pyridin-6-yl)-1H-pyrazole-4-carboxamide], the half-maximal effective concentration (EC50) is above 1 µM. The inhibition at 1 µM (single point inhibition @ 1 uM) fell in the range of 33 to 66%. The inhibition at 10 µM under setting [3] lay in the range of 0 to 33%. Consider `COCCOc1ccc(C(=O)Nc2cc3[nH]c(-c4ccnc(C)c4)cc3cn2)cc1OC` [Example 295, 3-methoxy-4-(2-methoxyethoxy)-N-(2-(2-methylpyridin-4-yl)-1H-pyrrolo[3,2-c]pyridin-6-yl)benzamide], for which the inhibition at 1 µM under setting [1] lay in the range of 0 to 33%. Further, the inhibition at 10 µM under setting [2] was 0 to 33%. `c1nc(NC2CCOCC2)cc2[nH]c(C3CCC3)cc12` [Example 121, 2-cyclobutyl-N-(tetrahydro-2H-pyran-4-yl)-1H-pyrrolo[3,2-c]pyridin-6-amine] showed an EC50 above 1 µM.

Take `c1cc(Nc2cc3[nH]c(-c4cccnc4)cc3cn2)cc(-c2nc[nH]n2)c1` [Example 272, N-(3-(1H-1,2,4-triazol-3-yl)phenyl)-2-(pyridin-3-yl)-1H-pyrrolo[3,2-c]pyridin-6-amine]: the inhibition at 1 µM under setting [1] lay within 0 to 33%. Further, the inhibition at 10 µM under setting [2] was 0 to 33%.

With `Cc1cc(-c2cc3cnc(NC(=O)c4cnn(C)c4)cc3[nH]2)ncn1` [Example 328, 1-methyl-N-(2-(6-methylpyrimidin-4-yl)-1H-pyrrolo[3,2-c]pyridin-6-yl)-1H-pyrazole-4-carboxamide], the inhibition at 1 µM under setting [1] is 0 to 33%. For the same compound, the inhibition at 10 µM under setting [2] is 0 to 33%.

Regarding `CC(C)n1cc(C(=O)Nc2cc3[nH]c(-c4ccnc(OCCC(F)(F)F)n4)cc3cn2)cn1` [Example 175, 1-isopropyl-N-(2-(2-(3,3,3-trifluoropropoxy)pyrimidin-4-yl)-1H-pyrrolo[3,2-c]pyridin-6-yl)-1H-pyrazole-4-carboxamide], for the setting “single point inhibition @ 1 uM”, the inhibition at 1 µM fell in the range of 0 to 33%. Also, the inhibition at 10 µM under setting [3] fell in the range of 67 to 100%. The compound `Cc1cc(-c2cc3cnc(NC4CCCOC4)cc3[nH]2)ccn1` (stereo in doubt) [Example 355, (S)-2-(2-methylpyridin-4-yl)-N-(tetrahydro-2H-pyran-3-yl)-1H-pyrrolo[3,2-c]pyridin-6-amine] had an EC50 above 1 µM. `CC(C)Nc1cc2c(cn1)cc(-c1ccnc(NCC(F)(F)F)n1)n2C` [Example 383, N-isopropyl-1-methyl-2-(2-(2,2,2-trifluoroethylamino)pyrimidin-4-yl)-1H-pyrrolo[3,2-c]pyridin-6-amine] displayed an EC50 above 1 µM.

A word on the EC50: it is the concentration needed to bring the measured effect to its halfway point.

For the origin of these results see US20240124444A1 (Celgene Corporation, priority 2020, published 2024).
